Measured values reported in ChEMBL document CHEMBL5370599, “Discovery of a 53BP1 Small Molecule Antagonist Using a Focused DNA-Encoded Library Screen” (J Med Chem, 2023).

How the values were obtained:
TERT-RPE1 [1] = assay: Cytotoxicity against human RPE-1 cells assessed as reduction in cell viability by celltiterglo 2.0 assay; type: toxicity, cell-based
HEK-293T [2] = assay: Cytotoxicity against HEK293T cells assessed as reduction in cell viability by celltiterglo 2.0 assay; type: toxicity, cell-based; conditions: human
TP53-binding protein 1 [3] = target: T1, TP53-binding protein 1 (Homo sapiens, UniProt Q12888); assay: Binding affinity to N-terminal his6-tagged 53BP1 (1484 to 1603 residues) (unknown origin) expressed in Rosetta2 BL21 (DE3) pLysS competent cells assessed as dissociation constant by SPR analysis
[4] = target: Histone-lysine N-methyltransferase SETDB1 (Homo sapiens, UniProt Q15047); assay: Displacement of Biotin-p53K381acK382me2 from SETDB1 tandem tudor domain (unknown origin) by TR-FRET assay
TP53-binding protein 1 [5] = target: T1, TP53-binding protein 1; conditions: filed as antagonist
Description: Binding affinity to N-terminal his6-tagged 53BP1 tandem tudor domain (1484 to 1603 residues) (unknown origin) expressed in Rosetta2 BL21 (DE3) pLysS competent cells assessed as change in enthalpy by differential scanning fluorimetry analysis

[6] = target: T2, Chromodomain Y-like protein 2 (Homo sapiens, UniProt Q8N8U2); assay: Displacement of Biotin-p53K381acK382me2 from CDYL2 (unknown origin) by TR-FRET assay
T2 sequence (Q8N8U2 whole entry): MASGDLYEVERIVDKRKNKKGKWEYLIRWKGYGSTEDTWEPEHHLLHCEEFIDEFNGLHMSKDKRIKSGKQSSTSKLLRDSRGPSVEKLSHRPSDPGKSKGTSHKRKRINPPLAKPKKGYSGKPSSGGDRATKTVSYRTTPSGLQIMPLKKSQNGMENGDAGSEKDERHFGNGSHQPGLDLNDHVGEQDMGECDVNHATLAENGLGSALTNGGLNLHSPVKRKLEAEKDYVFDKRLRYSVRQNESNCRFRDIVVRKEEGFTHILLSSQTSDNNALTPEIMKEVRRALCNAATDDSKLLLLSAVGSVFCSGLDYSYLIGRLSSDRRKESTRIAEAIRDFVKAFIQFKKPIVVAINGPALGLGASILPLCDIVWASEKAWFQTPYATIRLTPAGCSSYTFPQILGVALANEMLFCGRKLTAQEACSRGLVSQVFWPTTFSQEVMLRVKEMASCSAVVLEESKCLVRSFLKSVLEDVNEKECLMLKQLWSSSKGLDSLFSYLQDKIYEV

PHD finger protein 19 = PHD finger protein 19 (Homo sapiens, UniProt Q5T6S3); assay: Displacement of Biotin-p53K381acK382me2 from PHF19 (unknown origin) by TR-FRET assay
[7] = target: T3, E3 ubiquitin-protein ligase UHRF1 (Homo sapiens, UniProt Q96T88); assay: Displacement of Biotin-p53K381acK382me2 from UHRF1 tandem tudor domain (unknown origin) by TR-FRET assay
T3 sequence (Q96T88 whole entry): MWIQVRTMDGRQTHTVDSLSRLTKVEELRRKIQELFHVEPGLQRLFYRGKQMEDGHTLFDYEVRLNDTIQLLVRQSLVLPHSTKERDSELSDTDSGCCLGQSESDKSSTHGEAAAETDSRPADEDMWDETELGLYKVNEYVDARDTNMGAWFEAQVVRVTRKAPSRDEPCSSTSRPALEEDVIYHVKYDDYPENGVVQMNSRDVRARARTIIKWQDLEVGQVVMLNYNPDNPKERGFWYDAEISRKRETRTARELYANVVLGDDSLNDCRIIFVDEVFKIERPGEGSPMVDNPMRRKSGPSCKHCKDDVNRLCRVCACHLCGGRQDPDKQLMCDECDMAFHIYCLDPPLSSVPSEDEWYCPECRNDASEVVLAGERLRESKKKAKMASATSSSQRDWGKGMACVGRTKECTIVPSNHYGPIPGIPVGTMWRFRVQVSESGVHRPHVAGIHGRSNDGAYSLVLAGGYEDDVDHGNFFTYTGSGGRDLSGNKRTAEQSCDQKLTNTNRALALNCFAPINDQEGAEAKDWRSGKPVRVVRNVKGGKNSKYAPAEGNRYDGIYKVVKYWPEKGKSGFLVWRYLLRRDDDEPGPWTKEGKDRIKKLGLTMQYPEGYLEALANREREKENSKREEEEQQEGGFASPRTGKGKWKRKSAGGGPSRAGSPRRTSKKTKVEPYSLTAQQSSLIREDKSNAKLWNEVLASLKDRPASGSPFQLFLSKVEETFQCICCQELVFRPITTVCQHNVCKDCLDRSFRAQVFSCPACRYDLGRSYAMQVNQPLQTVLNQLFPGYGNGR

HEK-293T [8] = assay: Cytotoxicity against HEK293T cells assessed as reduction in cell viability measured upto 200 uM by celltiterglo 2.0 assay; type: toxicity, cell-based; conditions: human
TP53-binding protein 1 [9] = target: T1, TP53-binding protein 1; assay: Binding affinity to N-terminal his6-tagged 53BP1 tandem tudor domain (1484 to 1603 residues) (unknown origin) expressed in Rosetta2 BL21 (DE3) pLysS competent cells assessed as dissociation constant by ITC analysis
TERT-RPE1 [10] = assay: Cytotoxicity against human RPE-1 cells assessed as reduction in cell viability measured upto 200 uM by celltiterglo 2.0 assay; type: toxicity, cell-based; conditions: tert-rpe1, 200 µM
TP53-binding protein 1 [11] = target: T1, TP53-binding protein 1; assay: Displacement of Biotin-p53K381acK382me2 from N-terminal his6-tagged 53BP1 (1484 to 1603 residues) (unknown origin) expressed in Rosetta2 BL21 (DE3) pLysS competent cells by TR-FRET assay; type: single protein
[12] = target: T4, Chromobox protein homolog 2 (Homo sapiens, UniProt Q14781); assay: Displacement of Biotin-p53K381acK382me2 from CBX2 chromodomain (unknown origin) by TR-FRET assay
T4 sequence (Q14781 whole entry): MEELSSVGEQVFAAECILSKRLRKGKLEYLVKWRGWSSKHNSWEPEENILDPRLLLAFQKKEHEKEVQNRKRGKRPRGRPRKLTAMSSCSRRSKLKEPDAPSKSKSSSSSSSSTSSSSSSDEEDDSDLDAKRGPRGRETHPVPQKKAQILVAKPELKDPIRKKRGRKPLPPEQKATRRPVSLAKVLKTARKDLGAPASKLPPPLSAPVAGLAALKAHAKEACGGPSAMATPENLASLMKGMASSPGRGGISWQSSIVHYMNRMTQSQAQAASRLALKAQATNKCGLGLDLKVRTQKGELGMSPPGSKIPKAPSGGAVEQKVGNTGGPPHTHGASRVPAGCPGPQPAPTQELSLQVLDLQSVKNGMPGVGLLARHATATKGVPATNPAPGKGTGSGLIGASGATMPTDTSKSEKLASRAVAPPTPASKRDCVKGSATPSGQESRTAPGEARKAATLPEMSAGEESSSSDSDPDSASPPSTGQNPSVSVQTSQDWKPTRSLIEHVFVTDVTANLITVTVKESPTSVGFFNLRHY

TP53-binding protein 1 [13] = target: T1, TP53-binding protein 1; assay: Antagonist activity at nanoluc-tagged 53BP1 tandem tudor domain (unknown origin) transfected in HEK293T cells assessed as inhibition of 53BP1-H4 peptide interaction by nanoBRET assay; type: cell-based
M-phase phosphoprotein 8 = target: T5, M-phase phosphoprotein 8 (Homo sapiens, UniProt Q99549); assay: Displacement of Biotin-p53K381acK382me2 from MPP8 chromodomain (unknown origin) by TR-FRET assay
T5 sequence (Q99549 whole entry): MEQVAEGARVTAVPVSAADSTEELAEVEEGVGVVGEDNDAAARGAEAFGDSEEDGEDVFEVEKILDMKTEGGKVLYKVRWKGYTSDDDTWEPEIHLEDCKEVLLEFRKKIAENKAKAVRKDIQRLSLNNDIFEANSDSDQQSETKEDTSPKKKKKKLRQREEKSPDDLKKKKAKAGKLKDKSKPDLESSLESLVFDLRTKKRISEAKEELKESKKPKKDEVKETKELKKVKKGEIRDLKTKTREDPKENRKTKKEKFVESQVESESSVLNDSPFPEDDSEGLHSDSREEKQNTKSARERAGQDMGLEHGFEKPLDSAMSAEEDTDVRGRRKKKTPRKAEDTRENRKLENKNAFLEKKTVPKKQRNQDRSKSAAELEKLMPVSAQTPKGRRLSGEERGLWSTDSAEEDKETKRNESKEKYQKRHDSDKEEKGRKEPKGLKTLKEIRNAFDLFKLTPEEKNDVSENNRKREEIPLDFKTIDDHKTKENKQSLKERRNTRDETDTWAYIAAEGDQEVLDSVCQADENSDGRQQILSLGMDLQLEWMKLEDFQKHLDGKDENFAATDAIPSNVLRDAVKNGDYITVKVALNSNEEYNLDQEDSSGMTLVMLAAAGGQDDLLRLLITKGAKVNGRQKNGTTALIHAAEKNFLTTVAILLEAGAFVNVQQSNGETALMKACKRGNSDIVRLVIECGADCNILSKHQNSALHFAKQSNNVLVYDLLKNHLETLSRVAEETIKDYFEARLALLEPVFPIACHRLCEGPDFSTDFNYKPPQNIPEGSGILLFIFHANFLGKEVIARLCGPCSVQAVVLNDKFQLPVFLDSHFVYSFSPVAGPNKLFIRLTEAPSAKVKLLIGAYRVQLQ

[14] = Displacement of Biotin-p53K381acK382me2 from KDM7B (unknown origin) by TR-FRET assay; set-up: species or system Homo sapiens
[15] = Kinetic solubility of compound by CLND analysis; type: physicochemical

T1 sequence (Q12888 whole entry, the tested form may be a part): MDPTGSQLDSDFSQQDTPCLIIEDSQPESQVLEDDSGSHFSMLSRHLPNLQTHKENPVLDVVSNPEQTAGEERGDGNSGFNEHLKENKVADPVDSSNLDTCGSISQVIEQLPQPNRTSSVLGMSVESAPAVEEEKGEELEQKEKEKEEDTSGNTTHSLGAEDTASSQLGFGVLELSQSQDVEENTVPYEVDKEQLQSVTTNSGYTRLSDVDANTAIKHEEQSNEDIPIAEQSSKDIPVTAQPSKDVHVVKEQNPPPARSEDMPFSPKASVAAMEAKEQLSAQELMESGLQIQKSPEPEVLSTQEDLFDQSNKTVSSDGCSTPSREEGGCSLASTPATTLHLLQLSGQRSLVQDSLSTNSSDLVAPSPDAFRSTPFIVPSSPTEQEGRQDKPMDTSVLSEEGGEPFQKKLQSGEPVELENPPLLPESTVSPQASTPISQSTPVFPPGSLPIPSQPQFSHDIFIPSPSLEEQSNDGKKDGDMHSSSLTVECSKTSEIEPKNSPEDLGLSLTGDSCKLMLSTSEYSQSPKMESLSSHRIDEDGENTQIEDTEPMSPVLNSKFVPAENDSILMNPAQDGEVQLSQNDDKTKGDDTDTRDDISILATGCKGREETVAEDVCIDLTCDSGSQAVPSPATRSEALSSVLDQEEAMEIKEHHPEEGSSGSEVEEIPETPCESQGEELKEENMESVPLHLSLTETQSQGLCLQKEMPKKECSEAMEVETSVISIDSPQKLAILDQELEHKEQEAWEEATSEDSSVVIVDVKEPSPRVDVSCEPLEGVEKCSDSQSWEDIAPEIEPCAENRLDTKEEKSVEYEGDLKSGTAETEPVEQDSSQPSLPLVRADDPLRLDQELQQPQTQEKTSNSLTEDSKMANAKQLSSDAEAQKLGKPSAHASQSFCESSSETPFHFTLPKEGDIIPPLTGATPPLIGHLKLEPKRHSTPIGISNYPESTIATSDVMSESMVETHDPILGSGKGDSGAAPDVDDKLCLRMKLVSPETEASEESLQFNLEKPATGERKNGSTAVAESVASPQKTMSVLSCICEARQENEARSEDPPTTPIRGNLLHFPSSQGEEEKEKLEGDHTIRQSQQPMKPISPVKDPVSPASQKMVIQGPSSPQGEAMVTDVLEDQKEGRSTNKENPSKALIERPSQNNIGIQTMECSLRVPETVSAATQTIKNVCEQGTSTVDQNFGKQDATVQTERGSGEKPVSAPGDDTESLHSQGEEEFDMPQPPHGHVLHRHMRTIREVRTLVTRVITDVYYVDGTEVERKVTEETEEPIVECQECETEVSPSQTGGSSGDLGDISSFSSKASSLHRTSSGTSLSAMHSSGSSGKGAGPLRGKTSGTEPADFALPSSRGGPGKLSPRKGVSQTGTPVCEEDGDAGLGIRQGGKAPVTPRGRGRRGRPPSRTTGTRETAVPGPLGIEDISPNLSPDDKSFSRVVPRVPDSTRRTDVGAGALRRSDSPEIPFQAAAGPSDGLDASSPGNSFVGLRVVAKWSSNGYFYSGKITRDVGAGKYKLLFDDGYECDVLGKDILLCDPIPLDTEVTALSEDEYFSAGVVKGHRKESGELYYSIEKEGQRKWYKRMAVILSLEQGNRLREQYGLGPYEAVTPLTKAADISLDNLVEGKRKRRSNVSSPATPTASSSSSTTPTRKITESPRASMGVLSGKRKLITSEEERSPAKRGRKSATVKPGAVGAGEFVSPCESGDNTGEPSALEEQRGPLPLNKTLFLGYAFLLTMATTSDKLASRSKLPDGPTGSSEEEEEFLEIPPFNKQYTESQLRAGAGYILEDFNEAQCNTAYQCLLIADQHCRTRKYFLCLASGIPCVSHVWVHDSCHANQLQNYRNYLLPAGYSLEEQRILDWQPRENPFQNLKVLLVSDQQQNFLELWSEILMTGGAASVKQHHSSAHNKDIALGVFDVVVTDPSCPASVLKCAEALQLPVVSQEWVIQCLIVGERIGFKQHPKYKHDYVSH

Row | Compound | Activity (TERT-RPE1 [1]) | Activity (HEK-293T [2]) | Kd (TP53-binding protein 1 [3]) [µM] | IC50 [4] [µM] | deltaH (TP53-binding protein 1 [5]) [kcal/mol] | IC50 [6] [µM] | IC50 (PHD finger protein 19) [µM] | IC50 [7] [µM] | Activity (HEK-293T [8]) | Kd (TP53-binding protein 1 [9]) [µM] | Activity (TERT-RPE1 [10]) | IC50 (TP53-binding protein 1 [11]) [µM] | IC50 [12] [µM] | IC50 (TP53-binding protein 1 [13]) [µM] | IC50 (M-phase phosphoprotein 8) [µM] | IC50 [14] [µM] | Kinetic_solubility [15] [µM]
1 | O=C1NCc2ccc(-c3cccc(NC(=O)[C@H]4CCCN(C(=O)c5cc(N6CCCCC6)ccn5)C4)c3)cc21 | Toxic | Toxic |  |  |  |  |  |  |  |  |  |  |  |  |  |  | 
2 | CN1CCN(c2ccnc(C(=O)N3CCC[C@H](C(=O)Nc4cccc(-c5ccc(C(N)=O)cc5)c4)C3)c2)CC1 |  |  | 0.79 | > 100 | -9.2 | > 100 | > 100 | > 100 | Non-Toxic | 0.85 | Non-Toxic | 0.47 | > 100 | 8.5 | > 100 | > 100 | 194
3 | CN1CCN(c2ccnc(C(=O)N3CCC[C@H](C(=O)Nc4cccc(-c5ccc6c(c5)C(=O)NC6)c4)C3)c2)CC1 |  |  | 0.17 | > 100 | -5.8 | > 100 | > 100 | > 100 | Non-Toxic | 0.41 | Non-Toxic | 0.46 | > 100 | 6.9 | > 100 | > 100 | 200
